# Reference: patent US20220340875A1, “METHODS OF CULTURING AND/OR EXPANDING STEM CELLS AND/OR LINEAGE COMMITTED PROGENITOR CELLS USING AMIDO COMPOUNDS” (IDEAYA BIOSCIENCES, INC., priority 2018, published 2022)
# Biological target: T1, hAhR (Homo sapiens, UniProt P35869)
# T1 construct: Stably integrated DRE-luciferase cell lines were generated by transducing the both cell lines with Cignal XRE luciferase reporter (Qiagen) lentiviral particles; endogenous in cells
# T1 sequence (P35869 11-848): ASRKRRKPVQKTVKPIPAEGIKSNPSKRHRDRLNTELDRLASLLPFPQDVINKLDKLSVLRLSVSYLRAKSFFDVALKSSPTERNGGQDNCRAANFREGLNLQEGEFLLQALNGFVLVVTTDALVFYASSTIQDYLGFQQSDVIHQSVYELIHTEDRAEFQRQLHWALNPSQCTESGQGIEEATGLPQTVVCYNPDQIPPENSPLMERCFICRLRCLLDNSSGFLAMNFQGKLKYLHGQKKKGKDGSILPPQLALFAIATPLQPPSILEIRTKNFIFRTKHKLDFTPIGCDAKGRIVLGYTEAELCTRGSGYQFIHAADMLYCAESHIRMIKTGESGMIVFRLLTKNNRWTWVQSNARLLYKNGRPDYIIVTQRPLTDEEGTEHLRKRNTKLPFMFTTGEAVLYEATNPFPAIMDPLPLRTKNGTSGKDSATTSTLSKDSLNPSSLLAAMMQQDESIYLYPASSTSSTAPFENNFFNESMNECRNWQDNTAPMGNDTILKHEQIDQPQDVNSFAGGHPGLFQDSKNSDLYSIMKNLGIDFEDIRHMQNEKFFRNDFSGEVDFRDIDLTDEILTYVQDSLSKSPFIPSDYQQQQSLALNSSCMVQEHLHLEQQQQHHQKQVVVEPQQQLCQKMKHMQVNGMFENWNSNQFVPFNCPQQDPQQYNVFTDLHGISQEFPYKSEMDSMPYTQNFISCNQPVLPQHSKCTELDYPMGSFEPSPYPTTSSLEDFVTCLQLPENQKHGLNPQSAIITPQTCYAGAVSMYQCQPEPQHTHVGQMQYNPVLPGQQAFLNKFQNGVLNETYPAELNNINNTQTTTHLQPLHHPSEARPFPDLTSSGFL
# Experiment: AhR DRE-luciferase reporter transcriptional assay, antagonist mode (TCDD-induced)
# Type: cell-based
# Conditions: HEPG2 DRE-Luc cells, 3 nM TCDD, 24 hour incubation, relative IC50
# Experimental: HEPG2 and HEPA1C1C7 cells were maintained in MEM and αMEM without nucleosides supplemented with 10% heat inactivated FBS respectively. Stably integrated DRE-luciferase cell lines were generated by transducing the both cell lines with Cignal XRE luciferase reporter (Qiagen) lentiviral particles according to the manufacturer protocol. For both cell lines stably integrated reporter cell lines were selected for the presence of 2 µg/mL puromycin. Following selection of stably integrated cell line pools, clonal cell lines were isolated by limiting dilution in 96-well plates. Transcriptional assays were performed by seeding 100 μL of cells at a density of 250,000 or 100,000 cells/mL, for HEPG2 and HEPA1C1C7 DRE-Luc cells respectively, into 96-well cell culture plates in OptiMEM supplemented with 0.5% heat inactivated FBS and allowed to attach overnight. For modulator assays, the compounds were added in a semi-log dose response using a D300e Digital Dispenser (Tecan) followed normalization with vehicle (DMSO). Immediately following compound addition 10 μL of 2,3,7,8-Tetrachlorodibenzo-p-dioxin (TCDD) was added to the cells to a final concentration of 3 nM or 0.3 nM for the HEPG2 and HEPA1C1C7 DRE-Luc cells respectively. Following 24 hour incubation the medium was removed and the cells were lysed in 25 μL of Reporter Lysis Buffer (Promega). Firefly luciferase activity was measured immediately following the addition of 50 μL Luciferase Assay Reagent (Promega). The percent maximal activity for each point was determined using the following equasion: (RLUsample-RLUvehicle−TCDD)/(RLUvehicle+TCDD RLUvehicle−TCDD)*100. The relative IC50, defined as the compound concentration required to reduce the TCDD induced response between the top and bottom plateau of each individual dose response curve by half, for each compound was determined using Prism 7 (GraphPad Software).
row,Structure (SMILES),IC50
1,"Cn1nccc1C(=O)Nc1ccc(-c2cnc3ccccc3n2)cc1 [Example 003, 1-methyl-N-(4-(quinoxalin-2-yl)phenyl)-1H-pyrazole-5-carboxamide]",500 to 1000 nM
2,"Cc1cc(-c2ccc3cnn(C)c3c2)ccc1NC(=O)c1ccnn1C [Example 090, 1-Methyl-N-(2-methyl-4-(1-methyl-1H-indazol-6-yl)phenyl)-1H-pyrazole-5-carboxamide]",1000 to 10000 nM
3,"Cc1cc(-c2ccc3cc(C(F)(F)F)ccc3n2)ccc1NC(=O)C(F)(F)F [Example 080, 2,2,2-trifluoro-N-(2-methyl-4-(6-(trifluoromethyl)quinolin-2-yl)phenyl)acetamide]",1000 to 10000 nM
4,"Cc1cc(-c2ccc3cc(F)cc(C4CC4)c3n2)ccc1NC(=O)c1ccnn1C [Example 053, N-(4-(8-cyclopropyl-6-fluoroquinolin-2-yl)-2-methylphenyl)-1-methyl-1H-pyrazole-5-carboxamide]",500 to 1000 nM
5,"CCN(C(=O)c1ccnn1C)c1ccc(-c2ccc3cc(C(F)(F)F)ccc3n2)cc1C [Example 004, N-Ethyl-1-methyl-N-(2-methyl-4-(6-(trifluoromethyl)quinolin-2-yl)phenyl)-1H-pyrazole-5-carboxamide]",< 200 nM
6,"Cc1nc(NC(=O)c2ccnn2C)ccc1-c1ccc2cc(F)ccc2n1 [Example 044, N-(5-(6-fluoroquinolin-2-yl)-6-methylpyridin-2-yl)-1-methyl-1H-pyrazole-5-carboxamide]",1000 to 10000 nM
7,"Cc1cc(-c2ccc3cc(F)ccc3n2)ccc1NC(=O)c1cn(C)cn1 [Example 035, N-(4-(6-fluoroquinolin-2-yl)-2-methylphenyl)-1-methyl-1H-imidazole-4-carboxamide]",1000 to 10000 nM
8,"Cc1cc(-c2nc3ccc(C(F)(F)F)cc3s2)ccc1NC(=O)c1ccnn1C [Example 101, 1-methyl-N-(2-methyl-4-(6-(trifluoromethyl)benzo[d]thiazol-2-yl)phenyl)-1H-pyrazole-5-carboxamide]",200 to 500 nM
9,"Cc1cc(-c2ccc3cc(F)cc(C#N)c3n2)ccc1NC(=O)c1ccnn1C [Example 054, N-(4-(8-cyano-6-fluoroquinolin-2-yl)-2-methylphenyl)-1-methyl-1H-pyrazole-5-carboxamide]",200 to 500 nM
10,"Cn1nccc1C(=O)Nc1ccc(-c2ccc3cc(C(F)(F)F)ccc3n2)cc1F [Example 077, N-(2-fluoro-4-(6-(trifluoromethyl)quinolin-2-yl)phenyl)-1-methyl-1H-pyrazole-5-carboxamide]",200 to 500 nM
11,"Cc1cc(-c2cc(C)c3ccccc3n2)ccc1NC(=O)c1ccnn1C [Example 016, 1-Methyl-N-(2-methyl-4-(4-methylquinolin-2-yl)phenyl)-1H-pyrazole-5-carboxamide]",500 to 1000 nM
12,"Cn1nccc1C(=O)Nc1ccc(-c2ccc3nc(C(F)(F)F)ccc3n2)cc1F [Example 103, N-(2-fluoro-4-(6-(trifluoromethyl)-1,5-naphthyridin-2-yl)phenyl)-1-methyl-1H-pyrazole-5-carboxamide]",< 200 nM
13,"Cc1cc(-c2ccc3cc(Cl)ccc3n2)ccc1NC(=O)c1ccnn1C [Example 065, N-(4-(6-Chloroquinolin-2-yl)-2-methylphenyl)-1-methyl-1H-pyrazole-5-carboxamide]",200 to 500 nM
14,"Cc1cc(-c2ccc3c(C(F)(F)F)cn(C)c3c2)ccc1NC(=O)c1ccnn1C [Example 086, 1-methyl-N-(2-methyl-4-(1-methyl-3-(trifluoromethyl)-1H-indol-6-yl)phenyl)-1H-pyrazole-5-carboxamide]",1000 to 10000 nM
15,"Cn1nccc1C(=O)Nc1ccc(-c2ccc3cc(F)ccc3n2)cc1OC(F)(F)F [Example 047, N-(4-(6-fluoroquinolin-2-yl)-2-(trifluoromethoxy)phenyl)-1-methyl-1H-pyrazole-5-carboxamide]",1000 to 10000 nM
16,"Cc1cc(-c2ccc3cncc(C)c3c2)ccc1NC(=O)c1ccnn1C [Example 061, 1-methyl-N-(2-methyl-4-(4-methylisoquinolin-6-yl)phenyl)-1H-pyrazole-5-carboxamide]",500 to 1000 nM

# Now from value to compound:
row,IC50,Structure (SMILES)
1,< 200 nM,"Cc1cc(N(C)C(=O)c2ccnn2C)c(C)cc1-c1ncc2nc(C(F)(F)F)ccc2n1 [Example 188, N-(2,5-dimethyl-4-(6-(trifluoromethyl)pyrido[3,2-d]pyrimidin-2-yl)phenyl)-N,1-dimethyl-1H-pyrazole-5-carboxamide]"
2,200 to 500 nM,"Cc1cc(N(C)C(=O)c2ccnn2C)c(F)cc1-c1ncc2nc(C(F)(F)F)cc(C)c2n1 [Example 179, N-(2-fluoro-5-methyl-4-(8-methyl-6-(trifluoromethyl)pyrido[3,2-d]pyrimidin-2-yl)phenyl)-N,1-dimethyl-1H-pyrazole-5-carboxamide]"
3,< 200 nM,"Cc1cnccc1C(=O)N(C)c1ccc(-c2ncc3cc(C(F)(F)F)ccc3n2)cc1C [Example 122, N,3-dimethyl-N-(2-methyl-4-(6-(trifluoromethyl)quinazolin-2-yl)phenyl)isonicotinamide]"
4,< 200 nM,"Cc1cc(-c2ncc3cc(C(F)(F)F)ccc3n2)ccc1N(C)C(=O)c1c(C)cnn1C [Example 217, N,1,4-trimethyl-N-(2-methyl-4-(6-(trifluoromethyl)quinazolin-2-yl)phenyl)-1H-pyrazole-5-carboxamide]"
5,< 200 nM,"Cc1c(NC(=O)c2ccnn2C)ccc(-c2ncc3nc(C(F)(F)F)cc(C)c3n2)c1F [Example 174, N-(3-fluoro-2-methyl-4-(8-methyl-6-(trifluoromethyl)pyrido[3,2-d]pyrimidin-2-yl)phenyl)-1-methyl-1H-pyrazole-5-carboxamide]"
6,< 200 nM,"COc1cnccc1C(=O)Nc1ccc(-c2ncc3nc(C(F)(F)F)cc(C)c3n2)cc1C [Example 184, 3-methoxy-N-(2-methyl-4-(8-methyl-6-(trifluoromethyl)pyrido[3,2-d]pyrimidin-2-yl)phenyl)isonicotinamide]"
7,500 to 1000 nM,"Cc1cc(-c2ncc3nc(C(F)(F)F)ccc3n2)ccc1NC(=O)c1ccnn1CC(C)O (centres unmarked) [Example 193, 1-(2-hydroxypropyl)-N-(2-methyl-4-(6-(trifluoromethyl)pyrido[3,2-d]pyrimidin-2-yl)phenyl)-1H-pyrazole-5-carboxamide]"
8,< 200 nM,"Cc1cc(C(=O)Nc2ccc(-c3ncc4nc(C(F)(F)F)cc(C)c4n3)cc2C)ccn1 [Example 149, 2-methyl-N-(2-methyl-4-(8-methyl-6-(trifluoromethyl)pyrido[3,2-d]pyrimidin-2-yl)phenyl)isonicotinamide]"
9,< 200 nM,"Cc1cc(-c2ccc3cncc(Cl)c3n2)ccc1NC(=O)c1ccnn1C [Example 104, N-(4-(8-chloro-1,6-naphthyridin-2-yl)-2-methylphenyl)-1-methyl-1H-pyrazole-5-carboxamide]"
10,< 200 nM,"Cc1cc(C(=O)N(C)c2ccc(-c3ncc4nc(C(F)(F)F)cc(C)c4n3)cc2C)ccn1 [Example 150, N,2-dimethyl-N-(2-methyl-4-(8-methyl-6-(trifluoromethyl)pyrido[3,2-d]pyrimidin-2-yl)phenyl)isonicotinamide]"
11,1000 to 10000 nM,"Cc1cc(-c2ccc3cc(C(F)(F)F)ccc3n2)ccc1NC(=O)c1ccn[nH]1 [Example 204, N-[2-methyl-4-[6-(trifluoromethyl)quinolin-2-yl]phenyl]-1H-pyrazole-5-carboxamide]"
12,< 200 nM,"Cc1cc(-c2ccc3cc(C(F)(F)F)cc(C)c3n2)ccc1N(C)C(=O)c1ccnn1C [Example 202, N,1-dimethyl-N-(2-methyl-4-(8-methyl-6-(trifluoromethyl)quinolin-2-yl)phenyl)-1H-pyrazole-5-carboxamide]"
13,1000 to 10000 nM,"Cn1nccc1C(=O)Nc1ccc(-c2ncc3cc(C(F)(F)F)ccc3n2)cc1 [Example 220, 1-methyl-N-(4-(6-(trifluoromethyl)quinazolin-2-yl)phenyl)-1H-pyrazole-5-carboxamide]"
